Source: US12023385B2, “Tunable endogenous protein degradation with heterobifunctional compounds” (DANA-FARBER CANCER INSTITUTE, INC., priority 2017, dated 2024)
Entries after “also recorded” stand apart in the source; their conditions may differ.

Legend:
FKBP* fused to Nluc = molecular target: T1, FKBP* fused to Nluc (Homo sapiens, UniProt P62942, F37V); experiment: Nluc/Fluc luciferase ratio assay of FKBP* degradation in 293FT cells; type: cell-based; conditions: wild type or CRBN−/− 293FT cells, indicated concentrations, 4 hours
T1 construct: Nluc (nano luciferase) fusion partner; expressed in transfected cells; host or cells: 293FT cells (wild type or CRBN-/-)
T1 sequence (P62942 2-108 F37V): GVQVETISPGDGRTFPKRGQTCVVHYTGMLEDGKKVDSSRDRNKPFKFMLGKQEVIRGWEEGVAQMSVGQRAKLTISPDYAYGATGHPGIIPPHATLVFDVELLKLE
T1 sequence (Q96SW2 whole entry partner, the tested form may be a part): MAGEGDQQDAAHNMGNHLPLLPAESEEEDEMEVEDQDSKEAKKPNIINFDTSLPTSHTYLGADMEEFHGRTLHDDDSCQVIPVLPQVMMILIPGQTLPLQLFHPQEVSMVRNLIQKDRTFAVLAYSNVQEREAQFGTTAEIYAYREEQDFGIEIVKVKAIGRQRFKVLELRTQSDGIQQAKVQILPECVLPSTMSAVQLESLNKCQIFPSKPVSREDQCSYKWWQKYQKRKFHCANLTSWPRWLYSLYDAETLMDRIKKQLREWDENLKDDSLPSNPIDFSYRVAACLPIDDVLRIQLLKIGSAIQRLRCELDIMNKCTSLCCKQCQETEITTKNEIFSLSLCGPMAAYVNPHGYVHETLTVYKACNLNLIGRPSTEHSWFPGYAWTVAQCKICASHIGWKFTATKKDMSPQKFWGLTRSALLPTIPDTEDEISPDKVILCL
T1 sequence (Q16531 whole entry partner, the tested form may be a part): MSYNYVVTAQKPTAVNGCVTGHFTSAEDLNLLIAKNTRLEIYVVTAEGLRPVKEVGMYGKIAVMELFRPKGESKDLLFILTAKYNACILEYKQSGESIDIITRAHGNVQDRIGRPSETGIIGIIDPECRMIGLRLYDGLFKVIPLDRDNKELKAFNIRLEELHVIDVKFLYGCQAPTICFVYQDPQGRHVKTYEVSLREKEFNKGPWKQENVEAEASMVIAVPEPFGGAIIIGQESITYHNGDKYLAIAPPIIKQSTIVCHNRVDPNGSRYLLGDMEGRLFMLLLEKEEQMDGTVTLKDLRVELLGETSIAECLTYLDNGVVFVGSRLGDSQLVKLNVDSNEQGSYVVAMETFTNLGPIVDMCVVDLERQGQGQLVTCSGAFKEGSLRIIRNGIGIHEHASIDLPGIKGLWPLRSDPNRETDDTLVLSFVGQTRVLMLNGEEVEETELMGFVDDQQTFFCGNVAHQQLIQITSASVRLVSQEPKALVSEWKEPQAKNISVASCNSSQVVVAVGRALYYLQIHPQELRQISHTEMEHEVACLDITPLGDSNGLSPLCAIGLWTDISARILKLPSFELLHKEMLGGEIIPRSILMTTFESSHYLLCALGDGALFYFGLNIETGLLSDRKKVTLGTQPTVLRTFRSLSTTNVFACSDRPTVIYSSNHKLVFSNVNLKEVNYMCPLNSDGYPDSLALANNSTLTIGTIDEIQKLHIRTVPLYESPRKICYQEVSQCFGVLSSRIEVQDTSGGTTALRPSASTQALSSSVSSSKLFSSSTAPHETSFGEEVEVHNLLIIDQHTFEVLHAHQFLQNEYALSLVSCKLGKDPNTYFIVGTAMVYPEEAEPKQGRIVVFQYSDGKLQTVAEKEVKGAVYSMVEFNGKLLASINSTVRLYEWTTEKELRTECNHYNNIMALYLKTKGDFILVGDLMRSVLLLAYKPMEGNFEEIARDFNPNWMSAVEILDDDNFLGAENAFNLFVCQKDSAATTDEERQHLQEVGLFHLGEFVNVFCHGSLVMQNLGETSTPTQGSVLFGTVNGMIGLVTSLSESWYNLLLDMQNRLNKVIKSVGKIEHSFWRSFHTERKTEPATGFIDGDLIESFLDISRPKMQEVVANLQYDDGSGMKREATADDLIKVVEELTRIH
Procedure: In an effort to identify potent and selective dFKPB heterobifunctional compounds, high throughput measurements of targeted FKBP* degradation were measured by surrogate levels of luciferase. Here, FKBP* is exogenously expressed as a multicistronic transcript with two types of luciferase: nano luciferase (NLuc) and firefly luciferase (FLuc) that allow for cell normalized quantification of FKBP* protein levels. Degradation of FKBP* is measured as a signal ration (Nluc/Fluc) in wild type (FIG. 4A) or CRBN −/− (FIG. 4B) 293FT cells treated with indicated concentrations of dFKBPs for 4 hours.

FKBP* = molecular target: T2, FKBP* (Homo sapiens, UniProt P62942, F37V); experiment: Immunoblot of FKBP* degradation in 293FT cells (CRBN-WT or CRBN−/−); type: cell-based; conditions: 4 hours
T2 construct: HA; expressed in transfected cells; host or cells: 293FT cells (CRBN-WT or CRBN-/-)
T2 sequence (P62942 whole entry F37V): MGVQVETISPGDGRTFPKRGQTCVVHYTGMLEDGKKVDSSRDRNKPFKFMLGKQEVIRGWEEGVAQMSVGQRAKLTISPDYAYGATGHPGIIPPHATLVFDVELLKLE
Procedure: The dTAG is predicated on the selectivity of FKBP* specific ligands over endogenous, wild type FKBP. In 293T cells expressing wild type FKBP12 or FKBP*, dFKBP7 induces targeted degradation only in FKBP* expressing cells. An immunoblot of cells treated with heterobifunctional compounds described in the present invention was performed. 293FT cells (CRBN-WT or CRBN−/−) expressing either HA-tagged FKBP12WT or FKBP* were treated with indicated concentrations of dFKBP7 for 4 hours.
In 293T cells expressing wild type FKBP12 or FKBP*, treatment with dFKBP7 and dFKBP13 induces targeted degradation only in FKBP* expressing cells. Isogenic 293FT cells (CRBN-WT or CRBN−/−) were engineered to expressed either FKBP12WT or FKBP*. Cells were treated with 100 nM of either dFKBP7 or dFKBP13 for 4 hours before lysates were prepared for western immunoblot analysis.
In an effort to define the optimal concentration of dFKB13 heterobifunctional compound to induce degradation of FKBP*, degradation was measured upon treatment with increasing concentrations of dFKBP13. Isogenic 293FT cells (CRBN-WT or CRBN−/−) were engineered to expressed HA-tagged FKBP*. Cells were treated with the indicated dose of dFKBP13 for 4 hours before lysates were prepared for western immunoblot analysis.
To evaluate the kinetic control of targeted degradation FKBP*, dFKBP13 was administered by increased duration. […]

[1] = tested on: KRAS signaling (pMEK and pAKT); experiment: Immunoblot of downstream surrogates of KRAS signaling in NIH3T3 cells expressing dTAG-KRAS; type: cell-based
Procedure: (§1) Cells were treated with 500 nM dFKBP7 for the indicated time. Cells were harvested and immunoblotted to measure degradation of FKBP*-KRAS and downstream surrogates of KRAS signaling (e.g. pMEK and pAKT).
In an effort to identify the best performing dFKBP molecule, dTAG-KRAS degradation was profiled across a series of dFKBP molecules. Western blotting of NIH3T3 cells expressing dTAG-KRASG12V were treated with 1 μM of the indicated dFKBP heterobifunctional compounds for 24 hours. Cells were harvested and immunoblotted to measure degradation of FKBP*-KRAS and downstream surrogates of KRAS signaling (e.g. pMEK and pAKT).
(§2) Western blotting of NIH3T3 cells expressing FKBP* fused to the N-terminus of KRAS treated with the indicated concentrations of dFKBP13 for 24 hours. Cells were harvested and immunoblotted to measure degradation of FKBP*-KRAS and downstream surrogates of KRAS signaling (e.g. pMEK and pAKT).
(§3) To evaluate the kinetic control of targeted degradation of dTAG-KRAS, dFKBP13 was administered by increased duration. Western blotting of NIH3T3 cells expressing FKBP* fused to the N-terminus of KRAS treated with 1 μM dFKBP13 for the indicated time. Cells were harvested and immunoblotted to measure degradation of FKBP*-KRAS and downstream surrogates of KRAS signaling (e.g. pMEK and pAKT).
The dFKBP13 heterobifunctional compound potently degrades dTAG-KRAS mutant alleles. […]

[2] = tested on: indicated proteins fused to mutant FKBP* with an HA tag; experiment: Immunoblot of proteins fused to dTAG (FKBP*) in MV4;11 leukemia cells; conditions: indicated concentrations, 16 hours, western blot
Text: To test the general utility of the dTAG technology across several protein types, the indicated proteins fused to the dTAG in MV4;11 leukemia cells were expressed.

FKBP12WT = molecular target: T3, FKBP12WT (Homo sapiens, UniProt P62942); experiment: Immunoblot of wild type FKBP12 in 293FT cells (selectivity control); type: cell-based; conditions: 4 hours
T3 construct: HA; expressed in transfected cells; host or cells: 293FT cells (CRBN-WT or CRBN-/-)
T3 sequence (P62942 whole entry): as the sequence (P62942 whole entry F37V) above, with V37F counted along it
Procedure: The dTAG is predicated on the selectivity of FKBP* specific ligands over endogenous, wild type FKBP. […] An immunoblot of cells treated with heterobifunctional compounds described in the present invention was performed. 293FT cells (CRBN-WT or CRBN−/−) expressing either HA-tagged FKBP12WT or FKBP* were treated with indicated concentrations of dFKBP7 for 4 hours.
Isogenic 293FT cells (CRBN-WT or CRBN−/−) were engineered to expressed either FKBP12WT or FKBP*. Cells were treated with 100 nM of either dFKBP7 or dFKBP13 for 4 hours before lysates were prepared for western immunoblot analysis.

FKBP*-KRASG12V = experiment: Immunoblot of FKBP*-KRASG12V (dTAG-KRAS) degradation in NIH3T3 cells; type: cell-based
Procedure: as §1
Western blotting of NIH3T3 cells expressing dTAG-KRASG12V were treated with 1 μM of the indicated dFKBP heterobifunctional compounds for 24 hours. Cells were harvested and immunoblotted to measure degradation of FKBP*-KRAS and downstream surrogates of KRAS signaling (e.g. pMEK and pAKT).
as §2, §3
NIH3T3 cells (CRBN-WT) were engineered to express dTAG-KRASG12V. […]

[3] = tested on: NIH3T3 cells expressing dTAG-KRASG12V; experiment: Propidium iodide cell cycle analysis of NIH3T3 cells expressing dTAG-KRASG12V; type: cell-based; conditions: 48 hours
Procedure: NIH3T3 cells were engineered to express dTAG-KRASG12V. NIH3T3 cells expressing dTAG-KRASG12V were treated with dFKBP7 and dFKBP13 for 48 hours to induce targeted dTAG-KRASG12V degradation. Fixed cells were stained with propidium iodide and cell cycle analysis was performed.

[4] = 293FT CRBN-WT or CRBN−/−, indicated concentrations
[5] = isogenic 293FT CRBN-WT or CRBN−/−, 100 nM
[6] = NIH3T3 dTAG-KRASG12V, 1 μM, 24 hours

| SMILES | degradation of FKBP* as signal ratio (Nluc/Fluc) (FKBP* fused to Nluc) | degradation of HA-tagged FKBP* (FKBP*; [4]) | degradation of FKBP* (FKBP*; [5]) | downstream p-AKT signal ([1]; NIH3T3 N-terminal dTAG-KRAS, 500 nM, indicated time) | targeted degradation of proteins fused to dTAG [2] | degradation of HA-tagged FKBP12WT (FKBP12WT; [4]) | degradation of FKBP12WT or endogenous FKBP12 (FKBP12WT; [5]) | degradation of N-terminal dTAG-KRAS (FKBP*-KRASG12V; NIH3T3, 500 nM, indicated time) | cell cycle profile (S-phase entry) [3] | inhibition of downstream signaling (pMEK, pAKT) [1, 6] | degradation of FKBP*-KRAS (FKBP*-KRASG12V; [6]) |
| --- | --- | --- | --- | --- | --- | --- | --- | --- | --- | --- | --- |
| CC[C@H](C(=O)N1CCCC[C@H]1C(=O)O[C@H](CCc1ccc(OC)c(OC)c1)c1cccc(OCC(=O)NCCCOCCOCCOCCCNC(=O)COc2cccc3c2C(=O)N(C2CCC(=O)NC2=O)C3=O)c1)c1cc(OC)c(OC)c(OC)c1 (some centres unmarked) [dFKBP7] | effectively degrade FKBP* in a cereblon dependent manner | CRBN-dependent degradation of FKBP* | CRBN-dependent degradation of FKBP* | decrease in p-AKT signal | degradation was observed with nanomolar concentrations | not FKBPWT | not FKBP12WT or endogenous FKBP12 | potent degradation; also recorded: degraded | diminished S-phase entry | – | – |
| CC[C@H](C(=O)N1CCCC[C@H]1C(=O)O[C@H](CCc1ccc(OC)c(OC)c1)c1cccc(OCC(=O)NCCCCCCCCNC(=O)COc2cccc3c2C(=O)N(C2CCC(=O)NC2=O)C3=O)c1)c1cc(OC)c(OC)c(OC)c1 (some centres unmarked) [dFKBP9] | – | – | – | – | – | – | – | – | – | inhibition of downstream signaling | potent degradation |
